Test results from the supplement of paper PMC11208160.

Test: recombinant barcode read abundance after kanamycin selection (control-corrected) (log10(CPM+1)); higher = more efficient recombination; sequences stand for … in AGTGCAGAGAAAATCGGCCAGTTTTCTCTGCCTGCAGTCCGCATGCCGT…AGATTTATGCAGCGGACTGCCTTTCTCCCAAAGTGATAAACCGGACAGTATCATGGACCGGTTTTCCCGGTAATCCGTATTTGCAAGGTTGGTTTCACT; site = the 11-nt target
Summary of the method: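 Values are log10(CPM+1) from a pooled E. coli screen of targets paired with IS621 bridge RNA target-binding loops. Recombination efficiency here means counts per million of recombinant-junction barcodes, averaged and control-corrected. Plates were chloramphenicol/ampicillin LB agar for the control and chloramphenicol/ampicillin/kanamycin with 0.1 mM IPTG, two replicates each.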
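Note: IS621 recombinase and bridge RNA in Escherichia coli cells.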

Point of comparison: “GACCGGGCTTGGGTTCTAACCTGTTGCCT (site GACCGAGCTAG)”, “recombinant barcode read abundance (log10)” value 0.092. Against it:
- CTTTGAACTTGGGTTCTAACCTGTTGCTA (site CTTTGAACTTA) — within 0.2 log units, 0.016
- CTTTGAACTTGGGTTCTAACCTGTTGCTA (site TCGATCCCTAC) — within 0.2 log units, 0.102
- CTTTGGCCTTGGGTTCTAACCTGTTGCTT (site CCTTGGGCTAA) — higher, 0.439
- CTTTGGCCTTGGGTTCTAACCTGTTGCTT (site CTTTGGCCTAA) — within 0.2 log units, 0.0961
- CTTTGTGCTTGGGTTCTAACCTGTTGCCT (site CTTAGGGCTAG) — higher, 0.32
- CTTTGTGCTTGGGTTCTAACCTGTTGCCT (site CTTTGTGCTAG) — within 0.2 log units, 0.129
- GAAACTGCTTGGGTTCTAACCTGTTGCCT (site GAAACTGCTAG) — higher, 0.736
- GAAACTGCTTGGGTTCTAACCTGTTGCCT (site GACACTGCTAG) — within 0.2 log units, 0.211
- GAAACTGCTTGGGTTCTAACCTGTTGCCT (site GAGACTGCTAG) — within 0.2 log units, 0.158
- GAAACTGCTTGGGTTCTAACCTGTTGCCT (site GATACTGCTAG) — within 0.2 log units, 0.0634
- GAAAGCTCTTGGGTTCTAACCTGTTGCGT (site GAAAGCTCTAC) — higher, 2.99
- GAAAGCTCTTGGGTTCTAACCTGTTGCGT (site TCCTATGCTCG) — within 0.2 log units, 0.0782
- GAAAGTGCTTGGGTTCTAACCTGTTGCCT (site CAAAGTGCTAG) — within 0.2 log units, 0.0857
- GAAAGTGCTTGGGTTCTAACCTGTTGCCT (site GAAAGTGCTAG) — higher, 1.23
- GAAATAACTTGGGTTCTAACCTGTTGCGT (site AGCCCTCCTCT) — within 0.2 log units, 0.169
- GAAATAACTTGGGTTCTAACCTGTTGCGT (site GAAATAACTAC) — higher, 0.995
- GAAATGTCTTGGGTTCTAACCTGTTGCCT (site GAAATGTCTAG) — higher, 1.75
- GAAATGTCTTGGGTTCTAACCTGTTGCCT (site GCAATGTCTAG) — within 0.2 log units, 0.0338
- GAAATGTCTTGGGTTCTAACCTGTTGCCT (site GGAATGTCTAG) — within 0.2 log units, 0.262
- GAAATGTCTTGGGTTCTAACCTGTTGCCT (site GTAATGTCTAG) — higher, 0.634
- GAACCTACTTGGGTTCTAACCTGTTGCGG (site GAACCTACTCC) — higher, 1.77
- GAACCTACTTGGGTTCTAACCTGTTGCGG (site GAACCTACTTC) — within 0.2 log units, 0.107
- GAAGACGCTTGGGTTCTAACCTGTTGCCT (site GAAGACGCTAG) — higher, 1.14
- GAAGACGCTTGGGTTCTAACCTGTTGCCT (site GAAGCCGCTAG) — higher, 0.315
- GAAGACGCTTGGGTTCTAACCTGTTGCCT (site GAAGGCGCTAG) — within 0.2 log units, 0
- GAAGACGCTTGGGTTCTAACCTGTTGCCT (site GAAGTCGCTAG) — within 0.2 log units, 0.126
- GAAGGCGCTTGGGTTCTAACCTGTTGCCT (site GAAGACGCTAG) — within 0.2 log units, 0.187
- GAAGGCGCTTGGGTTCTAACCTGTTGCCT (site GAAGCCGCTAG) — higher, 0.306
- GAAGGCGCTTGGGTTCTAACCTGTTGCCT (site GAAGGCGCTAG) — higher, 1.81
- GAAGGCGCTTGGGTTCTAACCTGTTGCCT (site GAAGTCGCTAG) — within 0.2 log units, 0.0553
- GAAGTCCCTTGGGTTCTAACCTGTTGCCT (site AAAGTCCCTAG) — higher, 0.558
- GAAGTCCCTTGGGTTCTAACCTGTTGCCT (site CAAGTCCCTAG) — higher, 0.848
- GAAGTCCCTTGGGTTCTAACCTGTTGCCT (site GAAGTCCCTAG) — higher, 1.82
- GAAGTCCCTTGGGTTCTAACCTGTTGCCT (site TAAGTCCCTAG) — higher, 1.22
- GAAGTGCCTTGGGTTCTAACCTGTTGCCT (site GAAGAGCCTAG) — within 0.2 log units, 0.272
- GAAGTGCCTTGGGTTCTAACCTGTTGCCT (site GAAGCGCCTAG) — within 0.2 log units, 0.0713
- GAAGTGCCTTGGGTTCTAACCTGTTGCCT (site GAAGGGCCTAG) — within 0.2 log units, 0.195
- GAAGTGCCTTGGGTTCTAACCTGTTGCCT (site GAAGTGCCTAG) — higher, 1.92
- GAATCCTCTTGGGTTCTAACCTGTTGCCT (site AAATCCTCTAG) — within 0.2 log units, 0.145
- GAATCCTCTTGGGTTCTAACCTGTTGCCT (site CAATCCTCTAG) — higher, 0.531
- GAATCCTCTTGGGTTCTAACCTGTTGCCT (site GAATCCTCTAG) — higher, 2.06
- GAATCCTCTTGGGTTCTAACCTGTTGCCT (site TAATCCTCTAG) — higher, 0.483
- GAATGAGCTTGGGTTCTAACCTGTTGCCT (site CTCACGACTCT) — within 0.2 log units, 0.014
- GAATGAGCTTGGGTTCTAACCTGTTGCCT (site GAATGAGCTAG) — higher, 1.43
- GACAAGTCTTGGGTTCTAACCTGTTGCCT (site GAAACGTCTAG) — within 0.2 log units, 0.173
- GACAAGTCTTGGGTTCTAACCTGTTGCCT (site GACAAGTCTAG) — higher, 1.14
- GACACAACTTGGGTTCTAACCTGTTGCCT (site GACACAACTAG) — within 0.2 log units, 0
- GACACAACTTGGGTTCTAACCTGTTGCCT (site GACCCATCTAG) — higher, 0.338
- GACACGCCTTGGGTTCTAACCTGTTGCAT (site GACACGCCTAA) — within 0.2 log units, 0.0135
- GACACGCCTTGGGTTCTAACCTGTTGCAT (site GACACGCCTAC) — higher, 0.326
- GACACGCCTTGGGTTCTAACCTGTTGCAT (site GACACGCCTAG) — higher, 0.976
- GACACGCCTTGGGTTCTAACCTGTTGCAT (site GACACGCCTAT) — within 0.2 log units, 0.189
- GACAGGCCTTGGGTTCTAACCTGTTGCCT (site CACGGGCCTAG) — within 0.2 log units, 0.041
- GACAGGCCTTGGGTTCTAACCTGTTGCCT (site GACAGGCCTAG) — higher, 0.627
- GACATTCCTTGGGTTCTAACCTGTTGCCT (site AACATTCCTAG) — higher, 0.375
- GACATTCCTTGGGTTCTAACCTGTTGCCT (site CACATTCCTAG) — within 0.2 log units, 0.113
- GACATTCCTTGGGTTCTAACCTGTTGCCT (site GACATTCCTAG) — within 0.2 log units, 0.131
- GACATTCCTTGGGTTCTAACCTGTTGCCT (site TACATTCCTAG) — within 0.2 log units, 0.0381
- GACCACCCTTGGGTTCTAACCTGTTGCGG (site ATCCACCCTCC) — higher, 1.14
- GACCACCCTTGGGTTCTAACCTGTTGCGG (site GACCACCCTCC) — higher, 2.85
- GACCCTACTTGGGTTCTAACCTGTTGCCT (site AACCCTACTAG) — within 0.2 log units, 0.111
- GACCCTACTTGGGTTCTAACCTGTTGCCT (site CACCCTACTAG) — higher, 0.375
- GACCCTACTTGGGTTCTAACCTGTTGCCT (site GACCCTACTAG) — higher, 0.516
- GACCCTACTTGGGTTCTAACCTGTTGCCT (site TACCCTACTAG) — within 0.2 log units, 0.119
- GACCGGGCTTGGGTTCTAACCTGTTGCCT (site GACCGCGCTAG) — within 0.2 log units, 0.234
- GACCGGGCTTGGGTTCTAACCTGTTGCCT (site GACCGGGCTAG) — higher, 0.592
- GACCGGGCTTGGGTTCTAACCTGTTGCCT (site GACCGTGCTAG) — within 0.2 log units, 0.268
- GACCGTCCTTGGGTTCTAACCTGTTGCAT (site GACCGTCCTAA) — within 0.2 log units, 0.167
- GACCGTCCTTGGGTTCTAACCTGTTGCAT (site GACCGTCCTAC) — higher, 0.479
- GACCGTCCTTGGGTTCTAACCTGTTGCAT (site GACCGTCCTAG) — higher, 0.54
- GACCGTCCTTGGGTTCTAACCTGTTGCAT (site GACCGTCCTAT) — higher, 1.26
- GACCGTCCTTGGGTTCTAACCTGTTGCCT (site GACCGTCCTAA) — within 0.2 log units, 0.0128
- GACCGTCCTTGGGTTCTAACCTGTTGCCT (site GACCGTCCTAC) — within 0.2 log units, 0.1
- GACCGTCCTTGGGTTCTAACCTGTTGCCT (site GACCGTCCTAG) — higher, 1
- GACCGTCCTTGGGTTCTAACCTGTTGCCT (site GACCGTCCTAT) — within 0.2 log units, 0.263
- GACGGATCTTGGGTTCTAACCTGTTGCAT (site GACGGATCTAA) — within 0.2 log units, 0.191
